Reference: patent EP0960338B1, “DIAGNOSTIC METHODS AND COMPOSITIONS BASED ON THE DISTRIBUTION OF RAD51” (Yale University, priority 1997, dated 1998)
Several values for one entry are separate records, joined by “and”; a condition that tells them apart may be missing. Equal entries are not always repeated.

What was measured:
LNL8 fibroblasts = assay: Immunofluorescent staining of Rad51 foci in nuclei and micronuclei; type: cell-based, human
Method: (§1) Cell Culture. The sources of the cell lines were as follows. Rat TGR-1 cells, J. Sedivy. Brown University; mouse 3T3-Swiss cells, ATCC; human 293 kidney cells, ATCC; human teratoma cells, B. King, Yale University; human LNL8 fibroblasts, S. Meyn, Yale: human XPA and XPF fibroblasts, P Glazer, Yale.
(§2) Monolayer cultures were grown in D-MEM medium supplemented with 10% fetal bovine serum and antibiotics.
(§3) Immunofluorescent Staining.
(§4) Digital Imaging Microscopy.

TGR-1 cells [1] = assay: as above; type: cell-based, rat
Method: as §1, §2, §3, §4

TGR-1 cells [2] = tested on: TGR-1 cells
TGR-1 cells [3] = assay: Apoptosis by fluorescence in situ end labeling (FISEL); type: cell-based, rat; settings: for Percentage of Apoptotic Cells: FISEL+
Method: Fluorescence In Situ End Labeling (FISEL). FISEL detects cell death (apoptosis) in situ by quantitating DNA strand breaks in individual nuclei. It uses terminal transferase (TdT) to label the 3'-ends in fragmented genomic DNA with biotinylated nucleotide. 100 µl of reaction mix contain 1 µl (25 Units) TdT (Boehringer Mannheim), 20 µl 5xTdT buffer (supplied with the enyzme), 1 µl 0.5 mM biotin-II-dUTP, 3 µl 0.5 mM dTTP, and 75 µl ddH2O. Cytological preprations are incubated at 37°C for 1 hr with this reaction mix. Washing the slides for 3x5 min in PBS is sufficient to terminate the reaction. The incorporated biotin-dUTP is detected with rhodarnine-conjugated avidin.
Another more classical way for inducing apoptosis in vitro is the exposure of TGR-1 cells to the topoisomerase II inhibitor etoposide.

[4] = LNL8, 10^-5 M 5-aza-dC added 24 hrs before cell harvest
[5] = TGR-1, 10^-5 M 5-aza-dC added 24 hrs before cell harvest
[6] = TGR-1, 2 hrs in medium containing etoposide
[7] = TGR-1, 5 hrs in medium containing etoposide
[8] = TGR-1, 12 hrs in medium containing etoposide
[9] = TGR-1, 18 hrs in medium containing etoposide
[10] = TGR-1, 24 hrs in medium containing etoposide
[11] = TGR-1, 36 hrs in medium containing etoposide

Nc1ncn([C@H]2C[C@H](O)[C@@H](CO)O2)c(=O)n1 [5-aza-dC, 5-azadeoxycytidine]
Percentage of Cells with Type I Foci in Micronuclei (LNL8 fibroblasts; [4]): 1% | Percentage of Cells with Type I Foci in Nuclei (LNL8 fibroblasts; [4]): 3% | Percentage of Cells with Type II Foci in Micronuclei (LNL8 fibroblasts; [4]): 5% | Percentage of Cells with Type II Foci in Nuceli (LNL8 fibroblasts; [4]): 2% | Percentage of Cells without Foci (LNL8 fibroblasts; [4]): 89% | cells displaying MN with focally concentrated Rad51 protein (LNL8 fibroblasts; human LNL8 fibroblast cultures, non-lethal doses of 5-aza-dC, range stated jointly with TGR-1): 5-10% | cells displaying MN with focally concentrated Rad51 protein (TGR-1 cells [1]; Rat TGR-1 cultures, non-lethal doses of 5-aza-dC, range stated jointly with LNL8): 5-10% | Percentage of Cells with Type I Foci in Micronuclei (TGR-1 cells [1]; [5]): 4% | Percentage of Cells with Type I Foci in Nuclei (TGR-1 cells [1]; [5]): 5% | Percentage of Cells with Type II Foci in Micronuclei (TGR-1 cells [1]; [5]): 4% | Percentage of Cells with Type II Foci in Nuceli (TGR-1 cells [1]; [5]): 1% | Percentage of Cells without Foci (TGR-1 cells [1]; [5]): 86%

CN[C@H]1CCc2cc(OC)c(OC)c(OC)c2-c2ccc(OC)c(=O)cc21 [Colcemid, colcemid]
Percentage of Cells Showing Rad 51+/ FISEL+ (TGR-1 cells [2]): 0% and 1% and 6% and 4% | Percentage of Cells Showing Rad51-/ FISEL- (TGR-1 cells [2]): 85% and 54% and 45% and 43% | induced MN containing very brightly fluorescing Rad51 foci (TGR-1 cells [2]): over 30%

COc1cc([C@@H]2c3cc4c(cc3[C@@H](O[C@@H]3O[C@@H]5CO[C@@H](C)O[C@H]5[C@H](O)[C@H]3O)[C@H]3COC(=O)[C@H]23)OCO4)cc(OC)c1O [etoposide]
Percentage of Cells with Type I Foci in Micronuclei (TGR-1 cells [1]; [6]): 1% | Percentage of Cells with Type I Foci in Nuclei (TGR-1 cells [1]; [6]): 4% | Percentage of Cells with Type II Foci in Micronuclei (TGR-1 cells [1]; [6]): 2% | Percentage of Cells with Type II Foci in Nuclei (TGR-1 cells [1]; [6]): 1% | Percentage of Cells without Foci (TGR-1 cells [1]; [6]): 92% | Percentage of Cells with Type I Foci in Micronuclei (TGR-1 cells [1]; [7]): 2% | Percentage of Cells with Type I Foci in Nuclei (TGR-1 cells [1]; [7]): 3% | Percentage of Cells with Type II Foci in Micronuclei (TGR-1 cells [1]; [7]): 2% | Percentage of Cells with Type II Foci in Nuclei (TGR-1 cells [1]; [7]): 1% | Percentage of Cells without Foci (TGR-1 cells [1]; [7]): 92% | Percentage of Cells with Type I Foci in Micronuclei (TGR-1 cells [1]; [8]): 2% | Percentage of Cells with Type I Foci in Nuclei (TGR-1 cells [1]; [8]): 8% | Percentage of Cells with Type II Foci in Micronuclei (TGR-1 cells [1]; [8]): 2% | Percentage of Cells with Type II Foci in Nuclei (TGR-1 cells [1]; [8]): 1% | Percentage of Cells without Foci (TGR-1 cells [1]; [8]): 87% | Percentage of Cells with Type I Foci in Micronuclei (TGR-1 cells [1]; [9]): 8% | Percentage of Cells with Type I Foci in Nuclei (TGR-1 cells [1]; [9]): 3% | Percentage of Cells with Type II Foci in Micronuclei (TGR-1 cells [1]; [9]): 9% | Percentage of Cells with Type II Foci in Nuclei (TGR-1 cells [1]; [9]): 1% | Percentage of Cells without Foci (TGR-1 cells [1]; [9]): 79% | Percentage of Cells with Type I Foci in Micronuclei (TGR-1 cells [1]; [10]): 2% | Percentage of Cells with Type I Foci in Nuclei (TGR-1 cells [1]; [10]): 2% | Percentage of Cells with Type II Foci in Micronuclei (TGR-1 cells [1]; [10]): 8% | Percentage of Cells with Type II Foci in Nuclei (TGR-1 cells [1]; [10]): 6% | Percentage of Cells without Foci (TGR-1 cells [1]; [10]): 82% | Percentage of Cells with Type I Foci in Micronuclei (TGR-1 cells [1]; [11]): 5% | Percentage of Cells with Type I Foci in Nuclei (TGR-1 cells [1]; [11]): 2% | Percentage of Cells with Type II Foci in Micronuclei (TGR-1 cells [1]; [11]): 9% | Percentage of Cells with Type II Foci in Nuclei (TGR-1 cells [1]; [11]): 1% | Percentage of Cells without Foci (TGR-1 cells [1]; [11]): 83% | Percentage of Apoptotic Cells (TGR-1 cells [3]; 12 hrs in medium containing etoposide): 17% | Percentage of Apoptotic Cells (TGR-1 cells [3]; 18 hrs in medium containing etoposide): 24% | Percentage of Apoptotic Cells (TGR-1 cells [3]; 24 hrs in medium containing etoposide): 33% | cells showing genome fragmentation, stained FISEL-positively (TGR-1 cells [3]; 36 hrs after adding etoposide to the culture medium): half | Percentage of Apoptotic Cells (TGR-1 cells [3]; 36 hrs in medium containing etoposide): 47%
